The results in this text go back to US8507506B2, “Theophylline derivative inhibits osteoporosis” (Kaohsiung Medical University, priority 2011, dated 2013).

The structures appear in SMILES notation. Marks after values point to notes of the source that are not given here.

Holding throughout (type): cell-based
For assay [1], the system named is NFATc1 mRNA in RAW264.7 cells. Nature of the assay: RT-PCR, RANKL-induced mRNA expression of NFATc1. To be noted: for RANKL-induced mRNA expression level of NFATc1: RAW264.7 cells, 24 hours, CTL 100%, mean ± SEM. The text has this: The culture medium was discarded. […] [table] f) Running • A.
For assay [2], the system named is osteoclast-like cells, OCL. Nature of the assay: Intracellular calcium (fura-2/AM), RANKL-induced calcium influx. To be noted: 1 μM and 10 μM, FIGS. 14 and 15.
Assay [3] relates to MMP-2 protein in RAW264.7 cells. The assay can be described thus: Western blot, amount of MMP-2 protein induced by RANKL. The following applies: RANKL 24 hours, FIG. 18. How it is done:
KMUP-1 influences there major up-stream signal transduction pathways which are related to RANK/RANKL. Western blot is used to estimate the amount of matrix metalloproteinase (MMP)-2 and MMP-9 which are related to the dissolution of osteoclast-like cells, and the enzyme activity of MMP-2 and MMP-9 are estimated via Gelatin Zymography. […] The proteins were collected by scraping and were centrifuged (13,000 rpm, 4° C., 30 minutes). The supernatant was stored in an eppendorf in −80° C. • c) Concentrations of the proteins were examined by Bio-Red DC Protein Assay. After knowing the concentrations, the proteins were diluted to specific concentrations by adding ddH2O. One forth volume of the diluted proteins of sample buffer was added into the diluted proteins and was put in boiled water for 5 min and then was chilled on ice for 5 minutes. After short time centrifugation, the diluted proteins could be injected into wells of a gel. The gel was run at 100 V for 10 minutes until the proteins were driven to the intersection between a loading gel and a running gel. Then, the voltage was swopped to 200 V for 40 minutes. • d) A PVDF membrane was immersed in Methanol for 2 minutes. After two washes in ddH2O, the membrane was immersed in transfer buffer for 15 minutes. A SDS-PAGE was put on the membrane, and wet paper was flanked them. […]

The subject of a further assay is RAW264.7 cells. The assay can be described thus: BrdU assay, proliferation induced by RANKL. The following applies: RAW264.7, 5 μM, 7.5 μM, 10 μM, FIG. 2. A general note: Dividing cells build labelled thymidine or BrdU into new DNA.
In assay [4] the test system is ERK phosphorylation in RAW264.7 cells. Nature of the assay: Western blot, phosphorylation of ERK induced by RANKL. The following applies: 7.5 μM and 10 μM, RANKL 15 minutes, FIG. 9. How it is done: MAP kinases including ERK, JNK and p38 are stimulated by RANKL to be phosphorylized and further influence the down-stream key transcription factors which induce the differentiation of osteoclast-like cells such as c-Fos, NFATc1, etc. Before estimating the drug effect, 10 ng/ml RANKL are used to induce the phosphorylation of ERK, JNK and p38 at different time points. […] It is shown that KMUP-1 can reduce the activation of MAP kinases induced by RANKL. […] The proteins were collected by scraping and were centrifuged (13,000 rpm, 4° C., 30 minutes). The supernatant was stored in an eppendorf in −80° C. • c) Concentrations of the proteins were examined by Bio-Red DC Protein Assay. After knowing the concentrations, the proteins were diluted to specific concentrations by adding ddH2O. One forth volume of the diluted proteins of sample buffer was added into the diluted proteins and was put in boiled water for 5 min and then was chilled on ice for 5 minutes. After short time centrifugation, the diluted proteins could be injected into wells of a gel. The gel was run at 100 V for 10 minutes until the proteins were driven to the intersection between a loading gel and a running gel. Then, the voltage was swopped to 200 V for 40 minutes. • d) A PVDF membrane was immersed in Methanol for 2 minutes. After two washes in ddH2O, the membrane was immersed in transfer buffer for 15 minutes. […]
On the technique in general: A western blot detects proteins with antibodies after separation by electrophoresis.

Assay [5] deals with IL-10 secretion by RAW264.7 cells. Nature of the assay: ELISA, amount of IL-10. To be noted: RAW264.7, ELISA, increasing dose, FIG. 7(B). How it is done: Under RANKL stimulation, mononuclear RAW264.7 cells can secrete pro-inflammatory cytokines such as TNF-α, IL-1, IL-6, etc. ELISA is used to measure that KMUP-1 influences RANKL to induce the secretion of pro-inflammatory cytokines. […] 10^5 cells were plated per well in 24-well plates. […] After 24 hours reaction, the reaction fluid was centrifuged (13,000 rpm, 4° C., 20 minutes), and then the supernatant was tasted by ELISA kit (R&D system and eBioscience™) to detect the amount of TNF-α, IL-1β, IL-6, and IL-10. The experimental process is followed with the instructions of the kit.

With `Cn1c(=O)c2c(ncn2CCN2CCN(c3ccccc3Cl)CC2)n(C)c1=O` [KMUP-1, 7-[2-[4-(2-Chlorophenyl)piperazin-1-yl]ethyl] theophylline], the “effect on mRNA expression of NFATc1 induced by RANKL (in words)” value in assay [1] (10 ng/ml RANKL, summary of Table 1) was “inhibits the mRNA expression”. Also, the “RANKL-induced mRNA expression level of NFATc1” value in assay [1] (RANKL 10 ng/ml + KMUP-1 1 μM) turned out to be 256.9 ± 7.5%; in assay [1] (RANKL 10 ng/ml + KMUP-1 2.5 μM), 184.7 ± 4.2% ^b; in assay [1] (RANKL 10 ng/ml + KMUP-1 5 μM), 161.8 ± 2.9% ^b; in assay [1] (RANKL 10 ng/ml + KMUP-1 7.5 μM), 132.9 ± 2.4% ^b; in assay [1] (RANKL 10 ng/ml + KMUP-1 10 μM), 121.5 ± 4.5% ^b. Besides, the “RANKL-induced extracellular calcium influx” value in assay [2] is listed as “can inhibit it”. Besides, the “amount of MMP-2 protein induced by RANKL” value in assay [3] is “can efficiently inhibit the amount of MMP-2 and MMP-9 proteins”. The “cell proliferation induced by RANKL (BrdU assay)” value in the assay on RAW264.7 cells is recorded as “can inhibit the cell proliferation induced by RANKL”. Besides, in assay [4], the “phosphorylation of ERK induced by RANKL” value was “can efficiently inhibit the phosphorylation of ERK, JNK and p38 induced by RANKL”. Moreover, the “amount of anti-inflammatory cytokine IL-10” value in assay [5] is “can raise the amount of anti-inflammatory cytokines, IL-10”.
